Experimental data taken from patent publication US11230532B2, “Pyrimidines and variants thereof, and uses therefor” (Afferent Pharmaceuticals Inc., priority 2016, dated 2022).
Like-named read-outs stand apart in the source and are kept apart here.

Assays:
P2X3 [1] = conditions: oxygen-linked analogs; from Carter et al, Bioorg Med Chem Lett 2009; cited from earlier work
P2X3 [2] = assay: Mean pIC50s at P2X3 from Carter et al (literature); format: cell-based

Structure (SMILES)	P2X3 mean pIC50, X = O (P2X3 [1])	Selectivity, X = O (P2X3 [2])	Selectivity, X = O (P2X3 [2]; potency ratio P2X3 over P2X2/3 from the cited pIC50s)
COc1cc(Oc2cnc(N)nc2N)c(C(C)C)cc1OC [Row A, X = O, reference compound]	7.6	–	–
COc1cc(C(C)C)c(Oc2cnc(N)nc2N)cc1I [B, X = O]	8.0	8	–
COc1cc(C(C)C)c(Oc2cnc(N)nc2N)cc1S(C)(=O)=O [C, X = O]	7.0	10	–
COc1cc(C(C)C)c(Oc2cnc(N)nc2N)cc1Cl [D, X = O]	7.6	–	4
